The text below walks through data of patent US5391486A, “Physiologically active substance BE-16627” (Banyu Pharmaceutical Co., Ltd., priority 1989, dated 1995).

In one series the target is Collagenase. The experiment in a line: Collagenase inhibition in vitro (substrate A: 3H casein). It counts as biochemical. The conditions noted are these: Chlostridium histriticum. The procedure:
(§1) An inhibitory activity of BE-16627A and B to various proteases including stromelysin and collagenase was determined by an in-vitro test. As stromelysin (human), prostromelysin prepared by genetic engineering (Celltech., GB) was used by treating it with trypsin (10 μg/ml) at 37° C. for 10 minutes and inhibiting a residual trypsin activity with soybean trypsin inhibitor (50 μg/ml).
(§2) Substrate A: ^3 Hcasein

Another series concerns the target T1, Stromelysin (Homo sapiens, UniProt P08254).
T1 construct: prostromelysin prepared by genetic engineering (Celltech., GB) was used by treating it with trypsin; purchased Celltech., GB
As to the kind of experiment: Stromelysin inhibition in vitro (substrate A: 3H casein). The class given is biochemical, Human (Recombinant). To be noted: for inhibition of stromelysin (human) relative to other enzymes: in words, from Table 1, next collagenase and thermolysin; for IC50: stromelysin, human recombinant, substrate A (3H casein). The procedure:
As stromelysin (human), prostromelysin prepared by genetic engineering (Celltech., GB) was used by treating it with trypsin (10 μg/ml) at 37° C. for 10 minutes and inhibiting a residual trypsin activity with soybean trypsin inhibitor (50 μg/ml).
as §2

The next series in a line: Solubility. It counts as physicochemical.
In series [1] the test system is mouse cultured cancer cells (P388). As to the kind of experiment: cells. The class given is cell-based.
Another series deals with T2, Papain (Carica papaya, UniProt P00784).
T2 construct: from tissue; host or cells: Papaya latex
T2 sequence (P00784 134-345): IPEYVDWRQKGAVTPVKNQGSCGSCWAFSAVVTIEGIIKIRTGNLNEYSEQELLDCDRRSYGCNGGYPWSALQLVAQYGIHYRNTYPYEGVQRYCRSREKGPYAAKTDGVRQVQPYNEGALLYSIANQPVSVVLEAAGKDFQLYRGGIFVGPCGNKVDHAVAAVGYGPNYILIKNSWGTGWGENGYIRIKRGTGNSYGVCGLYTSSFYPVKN
The experiment in a line: Papain inhibition in vitro (substrate A: 3H casein). It counts as biochemical. The conditions noted are these: papaya latex. Here is the method: as §1, §2

For a further series, the system named is metal enzymes. As to the kind of experiment: Inhibitory activity to various proteases (metal enzymes versus others). The class given is biochemical. To be noted: in words, from Table 1. Here is the method:
as §1

The target of a further series is Pepsin (Sus scrofa, UniProt P00791). The experiment in a line: Pepsin inhibition in vitro (substrate A: 3H casein). It counts as biochemical. The conditions noted are these: porcine. Here is the method:
as §1, §2

In a further series the target is Elastase (Sus scrofa, UniProt P00772). As to the kind of experiment: Elastase inhibition in vitro (substrate B: Succinylalanyl-prolyl-alanyl-methylcumarylamide). It counts as biochemical. To be noted: porcine. The procedure: as §1
Sequence of Elastase (P00772 27-266): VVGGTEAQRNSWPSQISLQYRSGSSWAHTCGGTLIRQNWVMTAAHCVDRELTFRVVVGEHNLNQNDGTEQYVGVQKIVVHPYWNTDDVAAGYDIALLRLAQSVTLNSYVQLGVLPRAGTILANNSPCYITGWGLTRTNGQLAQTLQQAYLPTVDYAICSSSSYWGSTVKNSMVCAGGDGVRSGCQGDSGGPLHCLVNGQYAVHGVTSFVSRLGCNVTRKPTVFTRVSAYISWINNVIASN
Substrate B: Succinylalanyl-prolyl-alanyl-methylcumarylamide

The target in the next series is Thermolysin (Bacillus thermoproteolyticus, UniProt P00800). The experiment in a line: Thermolysin inhibition in vitro (substrate A: 3H casein). The class given is biochemical, Bacillus thermo-proteolyticus. Here is the method: as §1, §2
Sequence of Thermolysin (P00800 233-548): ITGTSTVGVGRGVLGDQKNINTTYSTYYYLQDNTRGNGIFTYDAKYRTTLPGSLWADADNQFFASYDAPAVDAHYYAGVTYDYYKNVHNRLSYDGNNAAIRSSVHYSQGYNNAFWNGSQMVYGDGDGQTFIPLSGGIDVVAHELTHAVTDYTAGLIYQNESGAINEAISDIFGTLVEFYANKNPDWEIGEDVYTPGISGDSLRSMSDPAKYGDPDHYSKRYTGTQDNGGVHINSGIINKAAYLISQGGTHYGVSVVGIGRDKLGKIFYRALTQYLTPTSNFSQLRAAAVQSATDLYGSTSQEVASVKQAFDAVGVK
The target of another series is Chymotrypsin (Bos taurus, UniProt P00766). As to the kind of experiment: Chymotrypsin inhibition in vitro (substrate A: 3H casein). It counts as biochemical. The conditions noted are these: bovine. Here is the method:
as §1, §2

Another series concerns the target T3, Trypsin (Bos taurus, UniProt P00760).
T3 sequence (P00760 24-246): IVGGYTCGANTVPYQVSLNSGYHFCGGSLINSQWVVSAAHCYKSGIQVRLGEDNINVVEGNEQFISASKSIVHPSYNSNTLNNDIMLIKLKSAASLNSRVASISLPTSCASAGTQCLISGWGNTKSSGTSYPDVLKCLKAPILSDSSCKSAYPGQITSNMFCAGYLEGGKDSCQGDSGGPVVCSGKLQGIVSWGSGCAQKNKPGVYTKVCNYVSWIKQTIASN
The experiment in a line: Trypsin inhibition in vitro (substrate A: 3H casein). The class given is biochemical. To be noted: bovine. Here is the method:
as §1, §2

Where [2] appears, read: in an organic solvent such as chloroform, ethyl acetate, benzene, hexane and the like.

T1 sequence (P08254 100-477): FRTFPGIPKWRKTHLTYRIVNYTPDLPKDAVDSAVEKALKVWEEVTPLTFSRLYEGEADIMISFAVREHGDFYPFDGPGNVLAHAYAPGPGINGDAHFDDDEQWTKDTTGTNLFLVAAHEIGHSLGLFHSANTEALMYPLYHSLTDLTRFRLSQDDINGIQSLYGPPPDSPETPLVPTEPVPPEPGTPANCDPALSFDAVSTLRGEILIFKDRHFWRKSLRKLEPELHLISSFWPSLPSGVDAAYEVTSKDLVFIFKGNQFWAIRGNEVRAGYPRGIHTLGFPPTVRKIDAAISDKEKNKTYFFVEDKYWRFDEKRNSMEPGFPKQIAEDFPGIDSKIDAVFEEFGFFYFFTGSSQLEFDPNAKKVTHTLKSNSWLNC
Sequence of Pepsin (P00791 60-385): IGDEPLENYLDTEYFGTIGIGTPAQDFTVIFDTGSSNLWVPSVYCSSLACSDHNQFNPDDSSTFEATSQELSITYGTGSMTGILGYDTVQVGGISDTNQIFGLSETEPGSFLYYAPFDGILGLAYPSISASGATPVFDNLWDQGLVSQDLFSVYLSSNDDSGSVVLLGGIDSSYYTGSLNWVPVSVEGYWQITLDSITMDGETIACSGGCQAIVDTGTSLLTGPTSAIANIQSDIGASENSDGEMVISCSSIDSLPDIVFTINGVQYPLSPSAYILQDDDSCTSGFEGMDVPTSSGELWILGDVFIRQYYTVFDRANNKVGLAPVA

The term IC50 denotes the concentration that inhibits the measured activity by half. Take `CCCC(CC(=O)NO)C(=O)NC(CO)C(=O)NC(C(=O)O)C(C)C` (stereo not drawn) [BE-16627A]: the half-maximal inhibitory concentration (IC50) was 11.6 µM at Collagenase; 5 µM at Stromelysin; no less than 100 µg/mL in series [1] (Mus musculus, P388, read-out: IC50 value (cytotoxic test)); 138 µM against Papain; greater than 276 µM on Pepsin; greater than 276 µM against Elastase. Moreover, the figures for the IC50 on Thermolysin, against Chymotrypsin and at Trypsin were 19.3 µM, greater than 276 µM and greater than 276 µM, respectively. In addition, the “inhibition of stromelysin (human) relative to other enzymes” value against Stromelysin was “most strongly inhibited”. The Solubility result in the series “Solubility” (in an alkaline water) is “readily soluble”; in “Solubility” (setting [2]), “almost insoluble”. The cytotoxicity entry in series [1] was “low cytotoxicity”. Further, the “inhibition of the activity of metal enzymes” value in the series on metal enzymes is reported as “specifically inhibited”.
Turning to `CC(C)CC(CC(=O)NO)C(=O)NC(CO)C(=O)NC(C(=O)O)C(C)C` (stereo not drawn) [BE-16627B], the half-maximal inhibitory concentration (IC50) at Collagenase was 2.7 µM; on Stromelysin, 0.58 µM; on Papain it was greater than 266 µM; against Pepsin, greater than 266 µM; on Elastase, greater than 266 µM; at Thermolysin, 2.4 µM. The IC50 at Chymotrypsin and against Trypsin was greater than 266 µM each time. Further, the “inhibition of stromelysin (human) relative to other enzymes” value against Stromelysin is “most strongly inhibited”. The results for the Solubility entry in the series “Solubility” (in an alkaline water) and in the series “Solubility” (setting [2]) were “readily soluble” and “almost insoluble”, respectively. The cytotoxicity result in series [1] is listed as “low cytotoxicity”. The “inhibition of the activity of metal enzymes” value in the series on metal enzymes was “specifically inhibited”.
